In assay [1] the target is Lister 427WT T. b. brucei. As to the kind of experiment: Adenosine deaminase susceptibility (drug sensitivity with/without 2 µM deoxycoformycin). It counts as cell-based, Trypanosoma brucei brucei. The protocol: Drug susceptibility tests with Lister 427WT, TbAT1-KO[48], B48[26] and ISMR1[27] were performed using an assay based on the viability indicator dye resazurin in 96-well plates, each well containing 2 × 10^4 cells. The plates were incubated for 48 h with a doubling dilution series of the test compounds in HMI-9/fetal bovine serum at 37 °C/5% CO2 (23 dilutions starting at 100 µM, except for the pentamidine control (50 µM)), after which resazurin (20 µL of 125 µg mL^−1 resazurin sodium salt solution was added to each well (containing 200 µL of cells and test compound)) was added to each well and the plates incubated for another 24 h. Fluorescence was determined using a FLUOstar Optima (BMG Labtech, Durham, NC) and the results fitted to a sigmoid curve with variable slope using Prism 5.0 or Prism 7.04 (GraphPad, San Diego, CA). […]
Adenosine deaminase susceptibility
in the presence or absence of 2 µM 2’-deoxycoformycin. […]

Assay [2] deals with T. b. brucei Lister 427WT. As to the kind of experiment: Drug susceptibility test (resazurin), Lister 427WT. The conditions noted are these: Trypanosoma brucei. It counts as cell-based, Trypanosoma brucei brucei. The procedure:
(§1) Drug susceptibility tests with Lister 427WT, TbAT1-KO[48], B48[26] and ISMR1[27] were performed using an assay based on the viability indicator dye resazurin in 96-well plates, each well containing 2 × 10^4 cells. The plates were incubated for 48 h with a doubling dilution series of the test compounds in HMI-9/fetal bovine serum at 37 °C/5% CO2 (23 dilutions starting at 100 µM, except for the pentamidine control (50 µM)), after which resazurin (20 µL of 125 µg mL^−1 resazurin sodium salt solution was added to each well (containing 200 µL of cells and test compound)) was added to each well and the plates incubated for another 24 h. Fluorescence was determined using a FLUOstar Optima (BMG Labtech, Durham, NC) and the results fitted to a sigmoid curve with variable slope using Prism 5.0 or Prism 7.04 (GraphPad, San Diego, CA).

Assay [3] relates to TbAT1-KO: T. brucei cell line lacking the TbAT1(P2) transporter gene. Put plainly: microbe, parasite or virus in culture. It is filed as cell-based, Trypanosoma brucei brucei. The conditions noted are these: for EC50: Trypanosoma brucei; for RF (TbAT1-KO): resistance factor: ratio of EC50 of resistant and Lister 427WT. The protocol:
as §1

Assay [4] concerns ISMR1: isometamidium-resistant T. brucei cell line. Put plainly: microbe, parasite or virus in culture. The settings on record: for EC50: Trypanosoma brucei; for RF (ISMR1): resistance factor vs Lister 427WT. It counts as cell-based, Trypanosoma brucei brucei. The protocol:
as §1

The test system of assay [5] is B48: pentamidine, diminazene and melaminophenyl arsenical resistant T. brucei line. Put plainly: microbe, parasite or virus in culture. The settings on record: for EC50: Trypanosoma brucei; for RF (B48): resistance factor vs Lister 427WT. It is filed as cell-based, Trypanosoma brucei brucei.
The subject of another assay is T. b. brucei Squib 427. As to the kind of experiment: Mouse model of acute HAT. The settings on record: Suramin 10 mg/kg sid IP. The procedure: Drinking water and food were available ad libitum throughout the experiment. […] The reference drug suramin was formulated in phospahte-buffered saline (PBS) at 2.5 mg mL^−1 and administered s.i.d. i.p. for 5 days at 10 mg kg^−1 (n = 3). All treatments were initiated 30 min prior to the i.p. infection. […] Parasitaemia was determined by microscopic evaluation of tail vein blood samples at 4, 7, 10, 14 and 21 dpi (pre-set endpoint). As a test of cure, blood samples (250 µL) were collected from treated mice at 21 dpi and were sub-inoculated i.p. in naive Swiss mice (n = 3), followed by monitoring of parasitaemia as follow-up.

Assay [6] has as its system T. b. brucei AnTAR1.1 PPYRE9. As to the kind of experiment: Mouse model of stage 2 HAT (BLI, parasitaemia, SL-RNA qPCR). It is filed as in vivo. The conditions noted are these: for BLI of the head region, RLU data: individual animals; for RLU data, individual mice: Melarsoprol. The protocol:
[…] Treatment was initiated at 21 dpi. […] Mice were injected i.p. with […] of D-luciferin and anaesthetised using isoflurane. The luminescent signal was acquired from both the dorsal and ventral side of the animals. […] Animals subjected to the different treatment schemes (from 4 wpi) were additionally imaged over a 5 min exposure time for enhanced sensitivity. […] Tissues were weighed and RNA was extracted using the RNeasy Plus Mini Kit (Qiagen) according to the manufacturer’s recommendations. […] A list of primers used is provided in the Supplementary Methods section of the Supplementary Information. BLI images from the IVIS Spectrum In Vivo Imaging System (Perkin Elmer) were analysed using LivingImage v4.3.1. SoftWoRx suite 2.0 for microscopy (image deconvolution), then processing using the Fiji software.

[7] abbreviates: DCF +, single replicate, read-out: EC50.
[8] abbreviates: DCF -, single replicate, read-out: EC50.
Where [9] appears, read: Trypanosoma brucei, DCF +, average of replicates, read-out: EC50 AVG.
[10] abbreviates: Trypanosoma brucei, DCF +, read-out: EC50 Reported value.
Where [11] appears, read: Trypanosoma brucei, DCF -, average of replicates, read-out: EC50 AVG.
Where [12] appears, read: Trypanosoma brucei, DCF -, read-out: EC50 Reported value.
[13] abbreviates: mean and SEM, n = 3, read-out: Lister 427 EC50.
[14] abbreviates: source data, read-out: s427 EC50, AVG.
The mark [15] stands for this setting: read-out: TbAT1-KO EC50, AVG, source data.
Where [16] appears, read: read-out: TbAT1-KO EC50, mean and SEM, n = 3.
Setting [17] is: mean and SEM, n = 3, read-out: ISMR1 EC50.
[18] abbreviates: source data, read-out: ISMR1 EC50, AVG.
The mark [19] stands for this setting: mean and SEM, n = 3, read-out: B48 EC50.
[20] abbreviates: source data, read-out: B48 EC50, AVG.

Structures are written as SMILES. Values joined by “and” are separate entries in the source; they are usually repeats but may differ in a detail not shown here. Equal values may be shown once. Read-outs that look alike come from different tables or passages of the source. Marks after values point to notes of the source that are not given here.

For orientation: EC50 means the concentration that produces a half-maximal response. `Nc1ncnc2c1c(Br)cn2[C@@H]1O[C@H](CO)C[C@H]1O` [FH7429-up (10)]: the EC50 is 0.0019 µM in assay [1] (DCF +, average of replicates, read-out: EC50 AVG); 0.0019 ± 0.0002 µM in assay [1] (DCF +, read-out: EC50 Reported value); 0.00201 µM and 0.00218 µM and 0.00152 µM in assay [1] (setting [7]); 0.00202 µM in assay [1] (DCF -, average of replicates, read-out: EC50 AVG); 0.002 ± 0.0001 µM in assay [1] (DCF -, read-out: EC50 Reported value); 0.0019 µM and 0.00186 µM and 0.0023 µM in assay [1] (setting [8]).
In the case of `Nc1ncnc2c1ccn2[C@@H]1O[C@H](CO)[C@@H](O)[C@H]1O` [Tubercidin (6)], the EC50 in assay [1] (setting [7]) is 0.173 µM and 0.283 µM and 0.47 µM; in assay [1] (setting [8]), 0.227 µM and 0.25 µM; in assay [1] (setting [9]), 0.309 µM; in assay [1] (setting [10]), 0.31 ± 0.07 µM; in assay [1] (setting [11]), 0.223 µM; in assay [1] (setting [12]), 0.22 ± 0.01 µM. For the same compound, the EC50 in assay [1] (Trypanosoma brucei, DCF -, single replicate, read-out: EC50) turned out to be 0.194 µM.
As to `N=C(N)c1ccc(/N=N/Nc2ccc(C(=N)N)cc2)cc1` [Diminazene, reference compound], the EC50 in assay [2] (setting [13]) turned out to be 0.42 ± 0.064 µM; in assay [2] (setting [14]), 0.423 µM; in assay [3] (setting [15]), 4.47 µM; in assay [3] (setting [16]), 4.5 ± 0.9 µM; in assay [4] (setting [17]) it was 2.9 ± 0.4 µM; in assay [4] (setting [18]), 2.92 µM. Besides, the EC50 in assay [5] (setting [19]) was 7.2 ± 1.6 µM; in assay [5] (setting [20]), 7.15 µM. For the same compound, in assay [3], the “RF (TbAT1-KO)” value was 10.6***. In assay [4], the “RF (ISMR1)” value is 6.9***. For the same compound, the “RF (B48)” value in assay [5] is listed as 16.9***.
With `CC[n+]1c(-c2ccccc2)c2cc(N/N=N/c3cccc(C(=N)N)c3)ccc2c2ccc(N)cc21` [Isometamidium, reference compound], the EC50 in assay [2] (read-out: Lister 427 EC50, mean and SEM, n = 3) was determined as 0.65 ± 0.085 µM; in assay [2] (setting [14]), 0.758 µM; in assay [3] (setting [15]), 0.736 µM; in assay [3] (setting [16]), 0.75 ± 0.14 µM; in assay [4] (setting [17]), 3.1 ± 0.5 µM; in assay [4] (setting [18]), 5.05 µM. Moreover, the EC50 in assay [5] (setting [19]) stood at 0.56 ± 0.13 µM; in assay [5] (setting [20]), 0.514 µM. Besides, the “RF (TbAT1-KO)” value in assay [3] is 1.2. Also, the “RF (ISMR1)” value in assay [4] is 4.8***. In assay [5], the “RF (B48)” value was 0.85.
`N=C(N)c1ccc(OCCCCCOc2ccc(C(=N)N)cc2)cc1` [Pentamidine, reference compound]: the EC50 in assay [2] (setting [13]) amounted to 0.011 ± 0.001 µM; in assay [2] (setting [14]) it was 0.00993 µM; in assay [3] (setting [16]), 0.018 ± 0.002 µM; in assay [4] (setting [17]), 0.14 ± 0.04 µM; in assay [4] (setting [18]) it was 0.138 µM; in assay [5] (setting [19]) it was 0.99 ± 0.16 µM. The EC50 in assay [5] (setting [20]) came to 0.877 µM. Further, the “RF (TbAT1-KO)” value in assay [3] is given as 1.8**. The “RF (ISMR1)” value in assay [4] is given as 13.8**. Further, the “RF (B48)” value in assay [5] is listed as 94.6***.
Turning to `Cc1ccc(C(=O)Nc2ccc(S(=O)(=O)O)c3cc(S(=O)(=O)O)cc(S(=O)(=O)O)c23)cc1NC(=O)c1cccc(NC(=O)Nc2cccc(C(=O)Nc3cc(C(=O)Nc4ccc(S(=O)(=O)O)c5cc(S(=O)(=O)O)cc(S(=O)(=O)O)c45)ccc3C)c2)c1` [suramin, reference compound], the “parasitaemia, individual mice” value in the assay on T. b. brucei Squib 427 (4 dpi), in the assay on T. b. brucei Squib 427 (7 dpi), in the assay with T. b. brucei Squib 427 (10 dpi), in the assay on T. b. brucei Squib 427 (14 dpi) and in the assay with T. b. brucei Squib 427 (21 dpi) was 0 in each case.
Consider `Nc1ncnc2c1ncn2[C@@H]1O[C@H](CO)C[C@H]1O` [Cordycepin (3)], for which the EC50 was 0.00551 µM and 0.00122 µM and 0.00417 µM in assay [1] (setting [7]); 0.169 µM and 0.509 µM and 0.634 µM in assay [1] (setting [8]); 0.00363 µM in assay [1] (setting [9]); 0.0036 ± 0.001 µM in assay [1] (setting [10]); 0.437 µM in assay [1] (setting [11]); 0.44 ± 0.11 µM in assay [1] (setting [12]).
With `Nc1ncnc2c1c(-c1ccccn1)cn2[C@@H]1O[C@H](CO)[C@@H](O)[C@H]1O` [Compound 7], the EC50 worked out at 0.17 µM in assay [2] (setting [14]), 0.404 µM in assay [3] (setting [15]), 0.433 µM in assay [4] (setting [18]) and 0.265 µM in assay [5] (setting [20]).
Regarding `Nc1nc(N)nc(Nc2ccc([As]3SCC(CO)S3)cc2)n1` (stereo not shown) [Melarsoprol, reference compound], the “BLI of the head region, RLU data” value in assay [6] (3 wpi (start of treatment, 21 dpi)) is 20700000 RLU and 53700000 RLU; in assay [6] (4 wpi), 96900 RLU and 114000 RLU; in assay [6] (5 wpi) it was 83900 RLU and 96500 RLU; in assay [6] (6 wpi) it was 85000 RLU and 111000 RLU; in assay [6] (7 wpi), 90100 RLU and 74800 RLU; in assay [6] (8 wpi), 81700 RLU and 77100 RLU. The “BLI of the head region, RLU data” value in assay [6] (9 wpi) is 73000 RLU and 85000 RLU. Moreover, the “RLU data, individual mice” value in assay [6] (3 wpi) is 133100000 RLU and 14890000 RLU; in assay [6] (4 wpi), 121700 RLU and 135100 RLU; in assay [6] (5 wpi) it was 112200 RLU and 109500 RLU; in assay [6] (6 wpi), 106700 RLU and 93980 RLU; in assay [6] (7 wpi) it was 99910 RLU and 79400 RLU; in assay [6] (8 wpi), 117400 RLU and 101400 RLU. The “RLU data, individual mice” value in assay [6] (9 wpi) is 93050 RLU and 80330 RLU; in assay [6] (11 wpi) it was 77170 RLU and 73440 RLU; in assay [6] (12 wpi) it was 62170 RLU and 64300 RLU; in assay [6] (14 wpi) it was 67840 RLU and 67090 RLU. The “parasite burdens in brain, spleen and fat by SL-RNA qPCR” value in assay [6] (tissues collected at 121 dpi) is recorded as “complete absence of parasite burdens”. Moreover, the “luminescent signal in the head region” value in assay [6] (to levels similar to a non-infected control mouse) was “rapid decline of the signal”.

(Values after article PMC6895180 (Nature Communications, 2019).)
